Measured values: patent US6358885B1, “Substituted phenylheterocyclic herbicides” (Mississippi State University, priority 1992, dated 2002)

Columns and labels:
Experiment in all cases: Test G preemergence/postemergence greenhouse plant response rating 0 to 100
pitted morningglory = assay type: in vivo, Ipomoea lacunosa; details: 0 to 100 scale
Description: (§1) Seeds, rhizomes, or plant parts of alfalfa (Medicago ativa), annual bluegrass (Poa annua), bermudagrass (Cynodon dactylon), broadleaf signalgrass (Brachiaria plantaginea), common purslane (Portulaca oleracea), common ragweed (Ambrosia elatior), […] (Paspalum dilatatum), goosegrass (Eleusine indica), guineagrass (Panicum maximum), […] exaltata), johnsongrass (Sorghum halepense), large crabgrass (Digitaria sanguinalis), peanut (Arachis hypoagaea), pitted morningglory (Ipomoea lacunosa), purple nutsedge (Cyperus rotundus), sandbur (Cenchrus echinatus), smooth crabgrass (Digitaria ischaemum) and yellow nutsedge (Cyperus esculentus) were planted into greenhouse pots containing greenhouse planting medium. Each pot contained only one plant species. The test compound was dissolved in a non-phytotoxic solvent and applied preemergence and/or postemergence to the plants. Preemergence applications were made within one day of planting the seeds or plant parts. Postemergence applications were applied when the plants were in the two to four leaf stage (three to twenty cm). Test chemicals were dissolved in a non-phytotoxic solvent and applied preemergence and postemergence to the plants. Untreated control plants and treated plants were placed in the greenhouse and visually evaluated for injury at 13 to 21 days after herbicide application. […] A dash (-) response indicates no test result.

bermudagrass = assay type: in vivo, Cynodon dactylon; details: 0 to 100 scale
Description: as §1

large crabgrass = assay type: in vivo, Digitaria sanguinalis; details: 0 to 100 scale
Description: as §1

peanut = assay type: in vivo, Arachis hypoagaea; details: 0 to 100 scale
Description: as §1

dallisgrass = assay type: in vivo, Paspalum dilatatum; details: 0 to 100 scale
Description: as §1

annual bluegrass = assay type: in vivo, Poa annua; details: 0 to 100 scale
Description: as §1

smooth crabgrass = assay type: in vivo, Digitaria ischaemum; details: 0 to 100 scale
Description: as §1

yellow nutsedge = assay type: in vivo, Cyperus esculentus; details: Rate 125 g/ha, 0 to 100 scale
Description: as §1

guineagrass = assay type: in vivo, Panicum maximum; details: 0 to 100 scale
Description: as §1

broadleaf signalgrass = assay type: in vivo, Brachiaria plantaginea; details: 0 to 100 scale
Description: as §1

goosegrass = assay type: in vivo, Eleusine indica; details: 0 to 100 scale
Description: as §1

alfalfa = assay type: in vivo, Medicago ativa; details: 0 to 100 scale
Description: as §1

itchgrass = assay type: in vivo, Rottboellia exaltata; details: 0 to 100 scale
Description: as §1

common ragweed = assay type: in vivo, Ambrosia elatior; details: 0 to 100 scale
Description: as §1

johnsongrass = assay type: in vivo, Sorghum halepense; details: 0 to 100 scale
Description: as §1

common purslane = assay type: in vivo, Portulaca oleracea; details: 0 to 100 scale
Description: as §1

purple nutsedge = assay type: in vivo, Cyperus rotundus; details: Rate 125 g/ha, 0 to 100 scale
Description: as §1

SMILES: Fc1cc(Cl)c(OCc2ccccc2)cc1-c1nn2c(c1Cl)CCCC2 [Compound 22]
- Plant response rating, Pit Morninglory (pitted morningglory; POSTEMERGENCE, Rate 125 g/ha): 20
- Plant response rating, Pit Morninglory (pitted morningglory; POSTEMERGENCE, Rate 250 g/ha): 0
- Plant response rating, Pit Morninglory (pitted morningglory; PREEMERGENCE, Rate 125 g/ha): 0
- Plant response rating, Pit Morninglory (pitted morningglory; PREEMERGENCE, Rate 250 g/ha): 0
- Plant response rating, Bermudagrass (bermudagrass; POSTEMERGENCE, Rate 125 g/ha): 20
- Plant response rating, Bermudagrass (bermudagrass; POSTEMERGENCE, Rate 250 g/ha): 0
- Plant response rating, Bermudagrass (bermudagrass; PREEMERGENCE, Rate 125 g/ha): 0
- Plant response rating, Bermudagrass (bermudagrass; PREEMERGENCE, Rate 250 g/ha): 0
- Plant response rating, Large Crabgrass (large crabgrass; POSTEMERGENCE, Rate 125 g/ha): 0
- Plant response rating, Large Crabgrass (large crabgrass; POSTEMERGENCE, Rate 250 g/ha): 0
- Plant response rating, Large Crabgrass (large crabgrass; PREEMERGENCE, Rate 125 g/ha): 0
- Plant response rating, Large Crabgrass (large crabgrass; PREEMERGENCE, Rate 250 g/ha): 0
- Plant response rating, Peanuts (peanut; POSTEMERGENCE, Rate 125 g/ha): 0
- Plant response rating, Peanuts (peanut; POSTEMERGENCE, Rate 250 g/ha): 0
- Plant response rating, Peanuts (peanut; PREEMERGENCE, Rate 125 g/ha): 0
- Plant response rating, Peanuts (peanut; PREEMERGENCE, Rate 250 g/ha): 0
- Plant response rating, Dallisgrass (dallisgrass; POSTEMERGENCE, Rate 125 g/ha): 0
- Plant response rating, Dallisgrass (dallisgrass; POSTEMERGENCE, Rate 250 g/ha): 0
- Plant response rating, Dallisgrass (dallisgrass; PREEMERGENCE, Rate 125 g/ha): 0
- Plant response rating, Dallisgrass (dallisgrass; PREEMERGENCE, Rate 250 g/ha): 0
- Plant response rating, Ann Bluegrass (annual bluegrass; POSTEMERGENCE, Rate 125 g/ha): 0
- Plant response rating, Ann Bluegrass (annual bluegrass; POSTEMERGENCE, Rate 250 g/ha): 0
- Plant response rating, Ann Bluegrass (annual bluegrass; PREEMERGENCE, Rate 125 g/ha): 0
- Plant response rating, Ann Bluegrass (annual bluegrass; PREEMERGENCE, Rate 250 g/ha): 0
- Plant response rating, Smooth Crabgras (smooth crabgrass; POSTEMERGENCE, Rate 125 g/ha): 0
- Plant response rating, Smooth Crabgras (smooth crabgrass; POSTEMERGENCE, Rate 250 g/ha): 0
- Plant response rating, Smooth Crabgras (smooth crabgrass; PREEMERGENCE, Rate 125 g/ha): 0
- Plant response rating, Smooth Crabgras (smooth crabgrass; PREEMERGENCE, Rate 250 g/ha): 0
- Plant response rating, Yellow Nutsedge (yellow nutsedge; POSTEMERGENCE): 0
- Plant response rating, Yellow Nutsedge (yellow nutsedge; PREEMERGENCE): 0
- Plant response rating, Guineagrass (guineagrass; POSTEMERGENCE, Rate 125 g/ha): 0
- Plant response rating, Guineagrass (guineagrass; POSTEMERGENCE, Rate 250 g/ha): 0
- Plant response rating, Guineagrass (guineagrass; PREEMERGENCE, Rate 125 g/ha): 0
- Plant response rating, Guineagrass (guineagrass; PREEMERGENCE, Rate 250 g/ha): 0
- Plant response rating, Brdlf Sgnlgrass (broadleaf signalgrass; POSTEMERGENCE, Rate 125 g/ha): 0
- Plant response rating, Brdlf Sgnlgrass (broadleaf signalgrass; POSTEMERGENCE, Rate 250 g/ha): 0
- Plant response rating, Brdlf Sgnlgrass (broadleaf signalgrass; PREEMERGENCE, Rate 125 g/ha): 0
- Plant response rating, Brdlf Sgnlgrass (broadleaf signalgrass; PREEMERGENCE, Rate 250 g/ha): 0
- Plant response rating, Goosegrass (goosegrass; POSTEMERGENCE, Rate 125 g/ha): 0
- Plant response rating, Goosegrass (goosegrass; POSTEMERGENCE, Rate 250 g/ha): 0
- Plant response rating, Goosegrass (goosegrass; PREEMERGENCE, Rate 125 g/ha): 0
- Plant response rating, Goosegrass (goosegrass; PREEMERGENCE, Rate 250 g/ha): 0
- Plant response rating, Alfalfa Var. (alfalfa; POSTEMERGENCE, Rate 125 g/ha): 0
- Plant response rating, Alfalfa Var. (alfalfa; POSTEMERGENCE, Rate 250 g/ha): 0
- Plant response rating, Alfalfa Var. (alfalfa; PREEMERGENCE, Rate 125 g/ha): 0
- Plant response rating, Alfalfa Var. (alfalfa; PREEMERGENCE, Rate 250 g/ha): 0
- Plant response rating, Itchgrass (itchgrass; POSTEMERGENCE, Rate 125 g/ha): 0
- Plant response rating, Itchgrass (itchgrass; POSTEMERGENCE, Rate 250 g/ha): 0
- Plant response rating, Itchgrass (itchgrass; PREEMERGENCE, Rate 125 g/ha): 0
- Plant response rating, Itchgrass (itchgrass; PREEMERGENCE, Rate 250 g/ha): 0
- Plant response rating, Cmn Ragweed (common ragweed; POSTEMERGENCE, Rate 125 g/ha): 70
- Plant response rating, Cmn Ragweed (common ragweed; POSTEMERGENCE, Rate 250 g/ha): 20
- Plant response rating, Cmn Ragweed (common ragweed; PREEMERGENCE, Rate 125 g/ha): 0
- Plant response rating, Cmn Ragweed (common ragweed; PREEMERGENCE, Rate 250 g/ha): 0
- Plant response rating, Johnsongrass (johnsongrass; POSTEMERGENCE, Rate 125 g/ha): 0
- Plant response rating, Johnsongrass (johnsongrass; POSTEMERGENCE, Rate 250 g/ha): 0
- Plant response rating, Johnsongrass (johnsongrass; PREEMERGENCE, Rate 125 g/ha): 0
- Plant response rating, Johnsongrass (johnsongrass; PREEMERGENCE, Rate 250 g/ha): 0
- Plant response rating, Cmn Purslane (common purslane; POSTEMERGENCE, Rate 125 g/ha): 80
- Plant response rating, Cmn Purslane (common purslane; POSTEMERGENCE, Rate 250 g/ha): 70
- Plant response rating, Cmn Purslane (common purslane; PREEMERGENCE, Rate 125 g/ha): 0
- Plant response rating, Cmn Purslane (common purslane; PREEMERGENCE, Rate 250 g/ha): 0
- Plant response rating, Purple Nutsedge (purple nutsedge; POSTEMERGENCE): 0
- Plant response rating, Purple Nutsedge (purple nutsedge; PREEMERGENCE): 0
